# According to patent publication US4628043A, “Hypothalamic GRF agonists” (The Salk Institute for Biological Studies, priority 1985, dated 1986):
# Square brackets hold non-standard residues; d marks the D form. Ends that are not written are not given here. Peptide text beside a SMILES is read from it. Nle = CCCC[C@H](N)C(=O)O
# How the values were obtained:
# [1] = system: cells of rat pituitary glands; experiment: in vitro GH release assay in cultured rat pituitary cells, hpGRF(1-40)-OH as standard; assay type: cell-based; conditions: for Comparison %: GH release at equimolar concentrations relative to hpGRF(1-40)-OH standard (100%), incubation 3 to 4 hours, ir GH by radioimmunoassay
# Protocol: To determine the effectiveness of the various synthetic peptides to promote the release of growth hormone, in vitro assays are carried out using synthetic hpGRF(1-40)--OH as a standard in side-by-side comparison with equimolar concentrations of the various other analogs and fragments synthesized. Cultures are used which include cells of rat pituitary glands removed some three to five days previously. Cultures which are considered optimal for the secretion of growth hormone are used for the comparative testing, in the general manner described in Vale et al. Endocrinology, 91, 562-572 (1972) and as more particularly described in Vale et al. Endocrinology, (1983), in press. Incubation with the substance to be tested is carried out for 3 to 4 hours, and aliquots of the culture medium are removed and processed to measure their contents in immunoreactive GH(ir GH) by a well-characterized radioimmunoassay.
# [2] = system: freely running normal male rats; experiment: in vivo GH secretion after injection through an indwelling catheter, FLA-63 pretreated rats; design: species or system rat; conditions: blood GH by radioimmunoassay prior to and 5 and 20 minutes after injection; result in words
# Protocol: In addition to the in vitro tests for secretion of growth hormone, in vivo experiments are also run by injecting the synthetic peptide through an indwelling catheter into freely running normal male rats. Animals are pretreated with FLA-63, a dopamine hydroxylase inhibitor that suppresses spontaneous GH secretion without affecting the response to exogenous GRF. Blood samples are taken through the same catheter immediately prior to and 5 and 20 minutes after injections; GH levels in blood are measured by radioimmunoassay. […] Dosages between about 40 nanograms and about 25 micrograms per Kg. of body weight are considered to be effective in causing secretion.
Compound,Comparison % [1] [%],"maximum effective concentration ([1]; in vitro GH secretion, cultured rat pituitary cells) [nM]",release of GH from cultured pituitary cells ([1]; result in words),stimulation of the secretion of pituitary GH in vivo [2]
"CCCC[C@H](NC(=O)[C@@H](NC(=O)[C@H](CC(=O)O)NC(=O)[C@H](CCC(N)=O)NC(=O)[C@H](CC(C)C)NC(=O)[C@H](CC(C)C)NC(=O)[C@H](CCCCN)NC(=O)[C@H](CCCNC(=N)N)NC(=O)[C@H](C)NC(=O)[C@H](CO)NC(=O)[C@H](CC(C)C)NC(=O)[C@H](CCC(N)=O)NC(=O)CNC(=O)[C@H](CC(C)C)NC(=O)[C@@H](NC(=O)[C@H](CCCCN)NC(=O)[C@H](CCCNC(=N)N)NC(=O)[C@H](Cc1ccc(O)cc1)NC(=O)[C@H](CO)NC(=O)[C@H](CC(N)=O)NC(=O)[C@@H](NC(=O)[C@H](Cc1ccccc1)NC(=O)[C@@H](NC(=O)[C@H](C)NC(=O)[C@H](CC(=O)O)NC(=O)[C@H](C)NC(=O)[C@@H](N)Cc1ccc(O)cc1)[C@@H](C)CC)[C@@H](C)O)C(C)C)[C@@H](C)CC)C(=O)N[C@@H](CC(N)=O)C(=O)N[C@@H](CCCNC(=N)N)C(N)=O [[Nle^27,Asn^28]--hGRF(1-29)-NH2, H--Tyr--Ala--Asp--Ala--Ile--Phe--Thr--Asn--Ser--Tyr--Arg--Lys--Val--Leu--Gly--Gln--Leu--Ser--Ala--Arg--Lys--Leu--Leu--Gln--Asp--Ile--Nle--Asn--Arg--NH2] (H-YADAIFTNSYRKVLGQLSARKLLQDI[Nle]NR-NH2)",520,–,–,–
"CC[C@H](C)[C@H](NC(=O)[C@H](C)NC(=O)[C@H](CC(=O)O)NC(=O)[C@H](C)NC(=O)[C@@H](N)Cc1c[nH]cn1)C(=O)N[C@@H](Cc1ccccc1)C(=O)N[C@H](C(=O)N[C@@H](CO)C(=O)N[C@@H](CO)C(=O)N[C@@H](Cc1ccc(O)cc1)C(=O)N[C@@H](CCCNC(=N)N)C(=O)N[C@@H](CCCNC(=N)N)C(=O)N[C@H](C(=O)N[C@@H](CC(C)C)C(=O)NCC(=O)N[C@@H](CCC(N)=O)C(=O)N[C@@H](CC(C)C)C(=O)N[C@@H](Cc1ccc(O)cc1)C(=O)N[C@@H](C)C(=O)N[C@@H](CCCNC(=N)N)C(=O)N[C@@H](CCCCN)C(=O)N[C@@H](CC(C)C)C(=O)N[C@@H](CC(C)C)C(=O)N[C@@H](Cc1c[nH]cn1)C(=O)N[C@@H](CCC(=O)O)C(=O)N[C@H](C(=O)N[C@@H](CCSC)C(=O)N[C@@H](CC(N)=O)C(=O)N[C@@H](CCCNC(=N)N)C(=O)N[C@@H](CCC(N)=O)C(=O)N[C@@H](CCC(N)=O)C(=O)NCC(=O)N[C@@H](CCC(=O)O)C(=O)N[C@@H](CCCNC(=N)N)C(=O)N[C@@H](CC(N)=O)C(=O)N[C@@H](CCC(N)=O)C(=O)N[C@@H](CCC(=O)O)C(=O)N[C@@H](CCC(N)=O)C(=O)N[C@@H](CCCNC(=N)N)C(=O)N[C@@H](CO)C(=O)N[C@@H](CCCNC(=N)N)C(=O)N[C@@H](Cc1ccccc1)C(=O)N[C@@H](CC(N)=O)C(=O)O)[C@@H](C)CC)[C@@H](C)CC)[C@@H](C)O [rGRF(1-43)--OH, H--His--Ala--Asp--Ala--Ile--Phe--Thr--Ser--Ser--Tyr--Arg--Arg--Ile--Leu--Gly--Gln--Leu--Tyr--Ala--Arg--Lys--Leu--Leu--His--Glu--Ile--Met--Asn--Arg--Gln--Gln--Gly--Glu--Arg--Asn--Gln--Glu--Gln--Arg--Ser--Arg--Phe--Asn--OH]",–,1,releases GH from cultured pituitary cells,powerful stimulators of the secretion of pituitary GH
"npGRF(1-40)-OH: synthetic hpGRF(1-40)--OH used as a standard in the in vitro assays (YADAIFTNSYRKVLGQLSARKLLQDIMSRQQGESNQERGA-OH; UniProt P01286 32-71, looked up, fragment) [reference compound]",100,–,–,–
